For one assay, the target named is T1, 5-HT1A (Rattus norvegicus, UniProt P19327).
T1 construct: from tissue; host or cells: rat frontal cortex (from the title of the cited method)
T1 sequence (P19327 1-422): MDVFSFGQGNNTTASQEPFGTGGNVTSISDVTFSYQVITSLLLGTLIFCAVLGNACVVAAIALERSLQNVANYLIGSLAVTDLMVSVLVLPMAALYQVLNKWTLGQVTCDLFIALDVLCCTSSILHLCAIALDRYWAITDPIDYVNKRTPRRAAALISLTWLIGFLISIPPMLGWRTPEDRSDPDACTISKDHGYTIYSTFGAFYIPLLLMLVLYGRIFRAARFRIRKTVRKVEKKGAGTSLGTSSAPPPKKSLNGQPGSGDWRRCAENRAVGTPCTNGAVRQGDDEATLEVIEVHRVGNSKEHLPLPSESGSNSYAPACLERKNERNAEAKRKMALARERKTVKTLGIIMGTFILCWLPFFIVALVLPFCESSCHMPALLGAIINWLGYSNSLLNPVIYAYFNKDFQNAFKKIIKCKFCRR
In words: Affinity for 5-HT1A receptors (method of Peroutka). It is filed as binding. The protocol: The affinities of the various products which form part of this invention for 5HT1A and 5HT1B receptors were measured according to the techniques described in:
Peroutka S. J. Pharmacological differentiation and characterization of 5HT1A, 5HT1B and 5HT1C binding sites in rat frontal cortex. J. Neurochem., 45, 529-540, 1986.

A further assay concerns 5-HT1D receptors. The assay is described as follows: Affinity for 5-HT1D receptors (3H-5HT binding, sheep caudate membranes). The conditions noted are these: for Ratio 1A/1D (ratio of the IC50 values for the 5HT1A and 5HT1D receptors): selectivity 5-HT1D over 5-HT1A; for IC50: sheep caudate nuclei membranes, 3H-5HT, 25° C., 30 min. The protocol:
STUDY OF THE AFFINITY FOR 5-HT1D RECEPTORS
This study is carried out according to the technique described by Pauwells et al. (Biochem. Pharmacol, 46, 535-538, 1993).
Preparation of the membranes
Sheep brains are removed in the local abattoir and transported in ice. The caudate nuclei are removed, weighed and homogenized with a Polytron for 20 sec (speed 6-7) in 20 volumes of Tris-HCl 50 mM, pH 7.7. The homogenate is centrifuged for 10 min at 48,000 g with an L5 50E centrifuge (Beckman).
The pellet, taken up in 20 volumes of Tris-HCl 50 mm, pH 7.7, is placed in a water bath at 37° C. for 10 min and then recentrifuged for 10 min at 48,000 g. The pellet then obtained is immediately frozen in fractions containing 0.5g of tissue.
The pellet is defrosted and homogenized with a Dounce in 80 volumes of Tris-HCl 50 mM, pH 7.7, containing 4 mM CaCl2, 10 μM of pargyline and 0.1% of ascorbic acid.
Affinity is produced at 25° C. by incubating for 30 min:
0.1 ml of buffer or 10 μM, as final concentration, of sumatriptan, in order to obtain the non-specific binding
0.1 ml of 3H-5HT (15 to 30 Ci:mM, New England Nuclear France).
The incubation is brought to an end by rapid filtration through GF/B filters and rinsing with 3 times 3 [illegible] ice-cold buffer, using a harvester manufactured by Brandel which makes it possible [illegible] to filter [illegible]samples. The filters are introduced into vials containing [illegible]ml of [illegible] [illegible] scintillant (Packard) and the radioactivity measured with a Tri-carb 4640 counter (Packard). The IC50 (concentration which inhibits the specific affinity by 50%) is determined graphically.

A further assay deals with T2, 5-HT1B receptor (Didelphis virginiana, UniProt P35404).
T2 construct: mediated by a 5-HT1B receptor, in an OK kidney epithelial cell line; endogenous in cells; host or cells: OK kidney epithelial cell line
In words: Agonist activity: inhibition of forskolin-stimulated cAMP formation mediated by a 5-HT1B receptor in OK kidney epithelial cell line. It is filed as cell-based. The procedure: STUDY OF THE AGONIST ACTIVITY WITH RESPECT TO THE 5-HT1B RECEPTORS
The measurements were carried out with respect to the inhibition of the formation of cAMP stimulated by forskolin, mediated by a 5-HT1B receptor, in an OK kidney epithelial cell line as described elsewhere (P. J. Pauwels and C. Palmier, Neuropharmacology, awaiting publication).
(In general: cAMP levels reflect the balance of adenylyl cyclase and phosphodiesterase activity.)

In a further assay the target is human 5HT1Da receptor (Homo sapiens, UniProt P28221). In words: Binding to cloned human 5HT1Da receptor. The following applies: human cloned receptor; [3H] ligand 2 nM; read-out: Ki 5HT1Da. The procedure:
(§1) Human 5HT1Da and 5HT1Db receptors were cloned according to the sequences published by M. Hamblin and M. Metcalf, Mol. Pharmacol., 40, 143 (1991) and Weinshenk et al., Proc. Natl. Acad. Sci., 89, 3630 (1992).
(§2) The transient transfection and the stable transfection of the genes of these receptors was carried out in Cos-7 and CHO-K1 cell lines by using an electroporator.
(§3) The binding of the derivatives of the present invention with human 5HT1Da, 5HT1Db and 5HT1A receptors was studied according to the method described by P. Pauwels and C. Palmier (Neuropharmacology, 33, 67, 1994).
(§4) The incubation media for these binding measurements comprise 0.4 ml of cell membrane preparation, 0.05 ml of a tritiated ligand [[3H]-SCT (final concentration: 2 nM) for the 5HT1Da and 5HT1Db receptors and [3H]-80H-DPAT (final concentration: 1 nM) for the 5HT1A receptor] and 0.05 ml of the molecule to be tested (final concentrations from 0.1 nM to 1000 nM) or 10 μM (final concentration) of serotonin (5HT1Da and 5HT1Db) or 1 μM (final concentration) of spiroxatrin (5HT1A ).

Assay [1] addresses T3, human 5HT1Db receptor (Homo sapiens, UniProt P28222). In words: cell-based. The following applies: human 5HT1Db; CHO-K1 cells; read-out: EC50 (Inhibition of the 5HT1Db cyclase stimulated by forskolin). The protocol:
as §1, §2
The inhibition of the formation of cyclic AMP (stimulated by forskolin) mediated by the human 5HT1Db receptor was studied in CHO-K1 cells transfected by the receptor according to the technique described previously for the 5HT1B receptor (P. Pauwels and C. Palmier, Neuropharmacology, 33, 67, 1994).

The target of assay [2] is T3, human 5HT1Db receptor. The assay is described as follows: Binding to cloned human 5HT1Db receptor. The following applies: human cloned receptor; [3H] ligand 2 nM; read-out: Ki 5HT1Db. The protocol:
as §1, §2, §3, §4

Setting [3] is: rat frontal cortex (Peroutka method), read-out: IC50 5-HT1A mean.

In general, IC50 refers to the concentration at which inhibition is half-maximal. Usually EC50 stands for the concentration that produces a half-maximal response. By Ki is commonly meant a measure of affinity in units of concentration, obtained from inhibition or displacement.

Molecules are shown by their SMILES. Counter-ions that a name gives are not always drawn. Like-named read-outs stand apart in the source and are kept apart here.

T3 sequence (P28222 whole entry): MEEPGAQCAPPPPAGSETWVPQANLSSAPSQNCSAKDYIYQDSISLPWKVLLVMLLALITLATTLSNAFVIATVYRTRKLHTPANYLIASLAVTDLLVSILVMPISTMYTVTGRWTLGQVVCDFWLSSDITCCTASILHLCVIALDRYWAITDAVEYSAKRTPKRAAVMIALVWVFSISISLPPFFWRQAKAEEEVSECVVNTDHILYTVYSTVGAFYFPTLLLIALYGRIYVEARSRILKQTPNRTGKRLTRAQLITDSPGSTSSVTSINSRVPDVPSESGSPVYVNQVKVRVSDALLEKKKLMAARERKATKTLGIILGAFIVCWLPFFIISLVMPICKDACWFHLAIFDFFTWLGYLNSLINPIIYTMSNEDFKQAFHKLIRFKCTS
T2 sequence (P35404 whole entry): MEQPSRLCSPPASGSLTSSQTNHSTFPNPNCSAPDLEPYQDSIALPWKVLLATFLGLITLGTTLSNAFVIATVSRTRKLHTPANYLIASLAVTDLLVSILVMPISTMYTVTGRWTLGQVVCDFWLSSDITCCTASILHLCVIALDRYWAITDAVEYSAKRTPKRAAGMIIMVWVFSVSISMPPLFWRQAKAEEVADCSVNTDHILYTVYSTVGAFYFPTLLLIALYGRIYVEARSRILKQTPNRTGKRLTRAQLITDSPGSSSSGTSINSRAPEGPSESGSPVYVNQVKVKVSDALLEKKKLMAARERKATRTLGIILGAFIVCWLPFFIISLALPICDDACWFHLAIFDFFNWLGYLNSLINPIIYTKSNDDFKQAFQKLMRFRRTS
human 5HT1Da receptor, sequence (P28221 whole entry): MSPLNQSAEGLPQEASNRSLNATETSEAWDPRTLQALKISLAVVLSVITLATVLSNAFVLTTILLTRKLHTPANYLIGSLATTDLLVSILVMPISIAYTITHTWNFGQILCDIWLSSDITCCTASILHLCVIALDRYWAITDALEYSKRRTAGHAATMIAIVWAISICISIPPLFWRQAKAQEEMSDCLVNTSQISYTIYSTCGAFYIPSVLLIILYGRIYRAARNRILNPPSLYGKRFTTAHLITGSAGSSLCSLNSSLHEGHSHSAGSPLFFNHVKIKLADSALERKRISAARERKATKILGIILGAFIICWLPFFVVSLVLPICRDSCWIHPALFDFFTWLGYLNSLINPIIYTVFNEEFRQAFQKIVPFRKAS

In the case of `CCS(=O)(=O)Nc1ccc(N2CCN(C(=O)COc3ccc4[nH]cc(CCN)c4c3)CC2)cc1` [Example 7, N-[4-(4-{2-[3-(2-Aminoethyl)-1H-indol-5-yloxy]acetyl}piperazin-1-yl)phenyl]ethanesulfonamide hydrochloride], at 5-HT1A (setting [3]), the concentration for half-maximal inhibition (IC50) was 44 nM. Also, in the assay with 5-HT1D receptors, the “Ratio 1A/1D (ratio of the IC50 values for the 5HT1A and 5HT1D receptors)” value (shortened to “Ratio 1A/1D”) was 28; the IC50 worked out at 1.6 nM.

Consider `NCCc1c[nH]c2ccc(OCC(=O)N3CCN(c4ccc(N(S(=O)(=O)c5cccs5)S(=O)(=O)c5cccs5)cc4)CC3)cc12` [Example 9, N-[4-(4-{2-[3-(2-Aminoethyl)-1H-indol-5-yl-oxy]acetyl}piperazin-1-yl)phenyl](thiophene-2-sulfonyl)-thiophene-2-sulfonamide hydrochloride], for which the IC50 at 5-HT1A (setting [3]) came to 38 nM.

`CS(=O)(=O)N(c1ccc(N2CCN(C(=O)COc3ccc4[nH]cc(CCN)c4c3)CC2)cc1)S(C)(=O)=O` [Example 6, N-[4-(4-{2-[3-(2-Aminoethyl)-1H-indol-5-yloxy]acetyl}piperazin-1-yl)phenyl](methanesulfonyl)methanesulfonamide hydrochloride]: at 5-HT1A (setting [3]), the IC50 turned out to be 79 nM. In the assay on 5-HT1D receptors, the “Ratio 1A/1D” value worked out at 18; the IC50 turned out to be 4.3 nM.

Regarding `NCCc1c[nH]c2ccc(O)cc12` [serotonin, reference compound], the “blocking the formation of cAMP (in words)” value on 5-HT1B receptor (OK kidney epithelial cell line, forskolin-stimulated) is listed as “capable of effectively blocking the formation of cAMP”.

As for `Cc1noc(C)c1S(=O)(=O)Nc1ccc(N2CCN(C(=O)COc3ccc4[nH]cc(CCN)c4c3)CC2)cc1` [Example 10, 3,5-Dimethylisoxazole-4-{N-[4-(4-{2-[3-(2-aminoethyl)-1H-indol-5-yloxy]acetyl}-piperazin-1-yl)phenyl]sulfonamide hydrochloride], the IC50 on 5-HT1A (setting [3]) stood at 20 nM; at 5-HT1D receptors it was 1 nM. Moreover, the “Ratio 1A/1D” value in the assay on 5-HT1D receptors was found to be 20.

For `NCCc1c[nH]c2ccc(OCC(=O)N3CCN(c4ccccc4[N+](=O)[O-])CC3)cc12` [Example 14, 2-[3-(2-Aminoethyl)-1H-indol-5-yloxy]-1-[4-(2-nitrophenyl)piperazin-1-yl)ethanone hydrochloride], the IC50 against 5-HT1A was determined as 9.5 nM; on 5-HT1D receptors, 1 nM. For the same compound, the “Ratio 1A/1D” value in the assay on 5-HT1D receptors is 10.

Regarding `NCCc1c[nH]c2ccc(OCC(=O)N3CCN(c4ccc(NS(=O)(=O)c5cccs5)cc4)CC3)cc12` [Example 8, Thiophene-2-{N-[4-(4-{2-[3-(2-aminoethyl)-1H-indol-5-yloxy]acetyl}piperazin-1-yl)phenyl]sulfonamide hydrochloride], the IC50 at 5-HT1A (setting [3]) came to 26 nM. Besides, in the assay with 5-HT1D receptors, the “Ratio 1A/1D” value is listed as 22; the IC50 came out at 1.2 nM.

`NCCc1c[nH]c2ccc(OCC(=O)N3CCN(c4ccc(N)cc4)CC3)cc12` [Example 2, 2-[3-(2-Aminoethyl)-1H-indol-5-yloxy]-1-[4-(4-aminophenyl)piperazin-1-yl]ethanone hydrochloride] gave an EC50 on 5-HT1B receptor of 0.3 to 1.2 nM.

In the case of `CS(=O)(=O)Nc1ccc(N2CCN(C(=O)COc3ccc4[nH]cc(CCN)c4c3)CC2)cc1` [Example 5, N-[4-(4-{2-[3-(2-Aminoethyl)-1H-indol-5-yloxy]acetyl}piperazin-1-yl)phenyl]methanesulfonamide hydrochloride], the results for the Ki at human 5HT1Da receptor and on human 5HT1Db receptor [2] were 0.7 nM and 3.2 nM, respectively. For the same compound, on human 5HT1Db receptor [1], the EC50 is 6.5 nM.

Regarding `CCOC(=O)Nc1ccc(N2CCN(C(=O)COc3ccc4[nH]cc(CCN)c4c3)CC2)cc1` [Example 11, 2-[3-(2-Aminoethyl)-1H-indol-5-yloxy]-1-[4-(4-N-{ethoxycarbonyl}aminophenyl)piperazin-1-yl]-ethanone hydrochloride], the results for the IC50 on 5-HT1A (setting [3]) and on 5-HT1D receptors were 105 nM and 2.4 nM, respectively. The “Ratio 1A/1D” value in the assay on 5-HT1D receptors worked out at 44.

`CC(=O)Nc1ccc(N2CCN(C(=O)COc3ccc4[nH]cc(CCN)c4c3)CC2)cc1` [Example 3, N-[4-(4-{2-[3-(2-Aminoethyl)-1H-indol-5-yloxy]acetyl}piperazin-1-yl)phenyl]acetamide hydrochloride] gave an EC50 at 5-HT1B receptor of 0.3 to 1.2 nM.

As for `CS(=O)(=O)Nc1ccc(N2CCN(C(=O)CCCCCOc3ccc4[nH]cc(CCN)c4c3)CC2)cc1` [Example 59, N-[4-(4-{6-[3-(2-Aminoethyl)-1H-indol-5-yloxy]hexanoyl}piperazin-1-yl)phenyl]methane sulfonamide hydrochloride], the Ki on human 5HT1Da receptor and at human 5HT1Db receptor [2] was 1.3 nM in each case. In addition, the 50% effective concentration (EC50) on human 5HT1Db receptor [1] was determined as 0.52 nM.

For the compound `NCCc1c[nH]c2ccc(OCC(=O)N3CCN(c4ccc([N+](=O)[O-])cc4)CC3)cc12` [Example 1, 2-[3-(2-Aminoethyl)-1H-indol-5-yloxy]-1-[4-(4-nitrophenyl)piperazin-1-yl]ethanone hydrochloride], the Ki turned out to be 0.5 nM on human 5HT1Da receptor and 1 nM on human 5HT1Db receptor [2]. The EC50 on human 5HT1Db receptor [1] is 1.2 nM; at 5-HT1B receptor it was 0.3 to 1.2 nM.

Take `NCCc1c[nH]c2ccc(OCC(=O)N3CCN(c4ccc(NC(=O)c5ccccc5)cc4)CC3)cc12` [Example 4, N-[4-(4-{2-[3-(2-Aminoethyl)-1H-indol-5-yloxy]acetyl}piperazin-1-yl)phenyl]benzamide hydrochloride]: at 5-HT1A (setting [3]), the IC50 amounted to 75 nM. In addition, in the assay with 5-HT1D receptors, the “Ratio 1A/1D” value is 75; the IC50 is 1 nM.

For the origin of these results see patent US5726177A, “Indole-derived arylpiperazines as ligands for 5HT1 -like, 5HT1B and 5HT1D receptors” (Pierre Fabre Medicament, priority 1993, dated 1998).
